Holding throughout (type): cell-based
Assay [1] deals with HIV strain derived from an infected patient having a Y188L mutation. Nature of the assay: PhenoSenseGT report, susceptibility analysis of patient-derived HIV. The settings on record: fold change in IC50 greater than the biological cutoff (BCO) for those drugs, FIG. 3. The protocol:
FIG. 3 is a sample PhenoSenseGT® report showing the results of susceptibility analyses to various nucleoside reverse transcriptase inhibitors (NRTIs), non-nucleoside reverse transcriptase inhibitors (NNRTIs), and protease inhibitors (PIs).
Drug susceptibility tests performed with resistance test vectors were carried out using packaging host and target host cells consisting of the human embryonic kidney cell line 293. Susceptibility tests were carried out with the RTV libraries by using viral particles comprising the RTV libraries to infect a host cell in which the expression of the indicator gene is measured. The amount of indicator gene (luciferase) activity detected in infected cells is used as a direct measure of “infectivity,” i.e., the ability of the virus to complete a single round of replication. Thus, drug susceptibility can be determined by plotting the amount of luciferase activity produced by patient derived viruses in the presence of varying concentrations of the antiviral drug. By identifying the concentration of drug at which luciferase activity is half-maximum, the IC50 of the virus from which patient-derived segment(s) were obtained for the antiretroviral agent can be determined. The IC50 provides a direct measure of the susceptibility of the HIV infecting the patient to the drug. […]

Assay [2] relates to HIV clinical specimens with Y188L and no known RPV resistance associated mutations. Nature of the assay: In-silico site directed mutagenesis (isSDM) analysis of matched phenotype/genotype database of clinical specimens. As to conditions: 286 clinical specimens with Y188L and no known RPV resistance associated mutations; biological cutoff FC=2. The protocol:
Rilpivirine (RPV) is a recently approved non-nucleoside reverse transcriptase inhibitor (NNRTI). […] Correlation analysis was performed among clinical specimens with both phenotypic and genotypic data (N=20,004). A novel mutation associated with phenotypic reduced rilpivirine susceptibility was identified, Y188L, as determined by a fold change in IC50 (FC) greater than the biological cutoff (BCO) for rilpivirine (FC=2).
(§1) Site-directed mutagenesis (SDM) was performed to verify the association of Y188L with RPV resistance. The impact of this mutation was also evaluated and compared to the existing RPV RAMs (K101E/P, E138A/G/K/Q/R, V179L, Y181C/I/V, H221Y, F227C, and M230I/L) by performing in-silico site directed mutagenesis (is SDM) as a method for analyzing samples in the database that have wild type amino acids at RPV resistance positions except for the single mutation of interest. Samples were not excluded based on other NNRTI RAMs, or their NRTI and PI profile. In the is SDM analysis, fold change (FC) distribution of samples with each mutation was compared to specimens without the mutation, and the difference was evaluated for statistical significance using Mann-Whitney test.
Drug susceptibility tests performed with resistance test vectors were carried out using packaging host and target host cells consisting of the human embryonic kidney cell line 293. […]

For assay [3], the system named is HIV engineered to contain the Y188L reverse transcriptase mutation. The protocol: as §1, with “test. […]” for “test.”
Drug susceptibility tests performed with resistance test vectors were carried out using packaging host and target host cells consisting of the human embryonic kidney cell line 293. Susceptibility tests were carried out with the RTV libraries by using viral particles comprising the RTV libraries to infect a host cell in which the expression of the indicator gene is measured. The amount of indicator gene (luciferase) activity detected in infected cells is used as a direct measure of “infectivity,” i.e., the ability of the virus to complete a single round of replication. […]

Data on three compounds can be found in patent publication US20130274276A1, “METHODS AND COMPOSITIONS FOR DETERMINING VIRUS SUSCEPTIBILITY TO NON-NUCLEOSIDE REVERSE TRANSCRIPTASE INHIBITORS” (Laboratory Corporation of America Holdings, priority 2012, published 2013).

Molecules are shown by their SMILES.

Turning to `O=C1Nc2ccc(Cl)cc2[C@@](C#CC2CC2)(C(F)(F)F)O1` [efavirenz], the “susceptibility of HIV with Y188L mutation (fold change in IC50 relative to biological cutoff)” value in assay [1] is reported as “reduced susceptibility”.
Same read-out and setting: for `Cc1ccnc2c1NC(=O)c1cccnc1N2C1CC1` [nevirapine] the value was “reduced susceptibility”.
Consider `Cc1cc(/C=C/C#N)cc(C)c1Nc1ccnc(Nc2ccc(C#N)cc2)n1` [rilpivirine], for which, in assay [2], the “median fold change in IC50 (FC) of clinical specimens with Y188L” value is 9.2 fold. For the same compound, the “fold change in IC50 (FC) of the Y188L site directed mutant” value in assay [3] was 6.1 fold.
